Among the data in patent US10654818B2, “Furane derivatives as inhibitors of ATAD2” (BAYER PHARMA AKTIENGESELLSCHAFT, priority 2015, dated 2020) are IC50 values, retold here.

The target of this assay is T1, recombinant, N-terminally GST-tagged ATAD2 bromodomain amino acids 981-1108 (Homo sapiens, UniProt Q6PL18).
T1 construct: ATAD2 bromodomain amino acids 981-1108; made in house; host or cells: E. coli
T1 sequence (Q6PL18 981-1108): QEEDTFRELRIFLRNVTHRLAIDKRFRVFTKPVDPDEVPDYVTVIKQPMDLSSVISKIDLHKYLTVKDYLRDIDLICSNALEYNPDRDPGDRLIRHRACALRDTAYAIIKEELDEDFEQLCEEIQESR
The experiment in a line: TR-FRET assay: disruption of the interaction between ATAD2 and acetylated Histone H4 (Ac-H4) peptide. The format is binding. As to conditions: inhibition of ATAD2/Ac-H4 complex formation; 10 nM ATAD2, 50 nM Ac-H4 peptide. The text has this: The ability of the compounds described in the present invention to disrupt the interaction between ATAD2 and acetylated Histone H4 (Ac-H4) was used as quantitative measure of their ATAD2-binding affinities.
To this end a TR-FRET assay which detects the binding of an Ac-H4-derived synthetic peptide (purchased from e.g. Biosyntan (Berlin, Germany)) of sequence HSGRGKGGGGKGLGK(Ac)GGAKRHRK-Biotin to recombinant, N-terminally GST-tagged ATAD2 bromodomain amino acids 981-1108. The protein was produced in-house via E. coli expression followed by GSH-Sepharose affinity- and Superdex S200-size exclusion chromatography purification.
Typically, 11 different concentrations of each compound (0.1 nM, 0.33 nM, 1.1 nM, 3.8 nM, 13 nM, 44 nM, 0.15 μM, 0.51 μM, 1.7 μM, 5.9 μM and 20 μM) were tested in duplicate within the same microtiter plate. To this end, 100-fold concentrated compound solutions (in DMSO) were previously prepared with a Precision Pippeting System (BioTek) by serial dilution (1:3.4) of 2 mM stocks in clear, low-volume 384-well microtiter source plates (Greiner Bio-One). Subsequently, 50 nl of compounds were transferred into black, low-volume test plates from the same supplier using a Hummingbird capillary based liquid handling instrument (Digilab). Tests were started by the addition of 2 μl of 2.5-fold concentrated ATAD2 solution (25 nM=10 nM final concentration in the 5 μl assay volume) in aqueous assay buffer [50 mM HEPES pH 7.5, 50 mM potassium fluoride (KF), 100 mM sodium chloride (NaCl), 0.25 mM CHAPS, 0.05% bovine serum albumine (BSA) and 1 mM dithiothreitol (DTT)] to the compounds in the test plate with a Multidrop dispenser (Thermo-Fisher). Test plates were then incubated 10′ at 22° C., in order to allow pre-equilibration of putative compound-ATAD2 complexes. Subsequently, 3 μl of a 1.67-fold concentrated solution containing Ac-H4 peptide (83.5 nM=50 nM final concentration) and TR-FRET detection reagents [16.7 nM Anti-GST-XL665 (Cisbio), =10 nM final concentration and 4.17 nM Lance EU W-1024 Streptavidin Europium Chelate (Perkin-Elmer)=2.5 nM final concentration were dispensed into the plates.
The mixture was further incubated in the dark for 1 hour at 22° C. Finally the inhibition of the formation of ATAD2/Ac-H4 complexes was assessed by measurement of the resonance energy transfer from the Streptavidin-Eu-Chelate to the anti-GST-XL665 antibody present in the reaction. To this end, the fluorescence emissions at 622 nm and 665 nm after excitation at 337 nm were measured in a TR-FRET reader, e.g. a Rubystar or Pherastar (both from BMG Lab Technologies) or a Viewlux (Perkin-Elmer) and the ratio of the emissions at 665 nm and at 622 nm was taken as indicator for the amount of ATAD2/Ac-H4 complexes in equilibrium.
The data were normalized using two sets of control wells (16 each). The first accounted for 100% ATAD2/Ac-H4 binding (0% inhibition), and contained all reaction components but DMSO instead of inhibitors. The second represented 0% ATAD2/Ac-H4 binding (100% inhibition), and included all assay components except ATAD2. IC50 values were calculated by fitting the normalized inhibition data to a 4-parameter logistic equation using either Screener software (Genedata) or a Bayer-proprietary analysis software.
In general terms: In TR-FRET formats the signal depends on donor and acceptor labels being close together.

A word on the IC50: it is the concentration that inhibits the measured activity by half. `Cc1ccc([C@@H](C)NCc2ccc(-c3ccc(Cl)c(C(=O)N[C@@H](CCNC(C)C)Cc4ccc(C#N)cc4)c3)o2)cc1` [Example 26, 2-chloro-N-[(2R)-1-(4-cyanophenyl)-4-(isopropylamino)butan-2-yl]-5-[5-({[(1R)-1-(4-methylphenyl)ethyl]amino}methyl)-2-furyl]benzamide]: the IC50 came to 0.331 µM.
Regarding `Cc1ccc([C@@H](C)NCc2ccc(-c3ccc(Cl)c(C(=O)N[C@@H](CNCC(=O)N4CCNCC4)Cc4ccc(C#N)cc4)c3)o2)cc1` [Example 55, 2-chloro-N-[(2R)-1-(4-cyanophenyl)-3-{[2-oxo-2-(piperazin-1-yl)ethyl]amino}propan-2-yl]-5-[5-({[(1R)-1-(4-methylphenyl)ethyl]amino}methyl)-2-furyl]benzamide], the IC50 turned out to be 0.274 µM.
Consider `Cc1ccc([C@@H](C)NCc2ccc(-c3ccc(Cl)c(C(=O)N[C@@H](CO)Cc4cc(F)c(C#N)cc4C)c3)o2)cc1` [Example 38, 2-chloro-N-[(2R)-1-(4-cyano-5-fluoro-2-methylphenyl)-3-hydroxypropan-2-yl]-5-[5-({[(1R)-1-(4-methylphenyl)ethyl]amino}methyl)-2-furyl]benzamide], for which the IC50 worked out at 0.365 µM.
Next, `Cc1ccc([C@@H](C)NCc2ccc(-c3cc(C(=O)N[C@@H](CO)Cc4ccc(C#N)cc4)ccc3C#N)o2)cc1` [Example 79, 4-cyano-N-[(2R)-1-(4-cyanophenyl)-3-hydroxypropan-2-yl]-3-[5-({[(1R)-1-(4-methylphenyl)ethyl]amino}methyl)-2-furyl]benzamide]: 1.4 µM.
`Cc1ccc([C@@H](C)NCc2ccc(-c3ccc(Cl)c(C(=O)N[C@@H](CO)Cc4ccccc4)c3)o2)cc1` [Example 96]: the IC50 came out at 2.65 µM.
With `COC(=O)c1ccc(C[C@H](CO)NC(=O)c2cc(-c3ccc(CN[C@H](C)c4ccc(C)cc4)o3)ccc2Cl)cc1` [Example 51, methyl 4-[(2R)-2-({2-chloro-5-[5-({[(1R)-1-(4-methylphenyl)ethyl]amino}methyl)-2-furyl]benzoyl}amino)-3-hydroxypropyl]benzoate], the IC50 turned out to be 0.81 µM.
In the case of `Cc1ccc([C@@H](C)NCc2ccc(-c3ccc(Cl)c(C(=O)N[C@H](Cc4ccc(C#N)cc4)CN4CCOCC4)c3)o2)cc1` [Example 22, 2-chloro-N-[(2R)-1-(4-cyanophenyl)-3-(morpholin-4-yl)propan-2-yl]-5-[5-({[(1R)-1-(4-methylphenyl)ethyl]amino}methyl)-2-furyl]benzamide] it was 0.854 µM; in that of `Cc1ccc([C@@H](C)NCc2ccc(-c3ccc(Cl)c(C(=O)N[C@H](Cc4ccc(C#N)cc4)CN4CCCC4)c3)o2)cc1` [Example 49, 2-chloro-N-[(2R)-1-(4-cyanophenyl)-3-(pyrrolidin-1-yl)propan-2-yl]-5-[5-({[(1R)-1-(4-methylphenyl)ethyl]amino}methyl)-2-furyl]benzamide], 1.76 µM; in that of `Cc1ccc([C@@H](C)NCc2ccc(-c3ccc(Cl)c(C(=O)N[C@@H](CNCCC4CCNCC4)Cc4ccc(C#N)cc4)c3)o2)cc1` [Example 70], 0.0858 µM.
Take `COc1cc(Cl)c(C(=O)N[C@@H](CN[C@H]2CC[C@@H](N)CC2)Cc2ccc(C#N)cc2)cc1-c1ccc(CN[C@H](C)c2ccc(C)cc2)o1` [Example 87, N-[(2R)-1-[(4-aminocyclohexyl)amino]-3-(4-cyanophenyl)propan-2-yl]-2-chloro-4-methoxy-5-[5-({[(1R)-1-(4-methylphenyl)ethyl]amino}methyl)-2-furyl]benzamide]: the IC50 worked out at 0.216 µM.
Take `Cc1ccc([C@@H](C)NCc2ccc(-c3ccc(Cl)c(C(=O)N[C@@H](CC(=O)NC(C)C)Cc4ccc(C#N)cc4)c3)o2)cc1` [Example 6, 2-chloro-N-[(2R)-1-(4-cyanophenyl)-4-(isopropylamino)-4-oxobutan-2-yl]-5-[5-({[(1R)-1-(4-methylphenyl)ethyl]amino}methyl)-2-furyl]benzamide]: the half-inhibitory concentration (IC50) worked out at 0.656 µM.
With `Cc1ccc([C@@H](C)NCc2ccc(-c3ccc(Cl)c(C(=O)N[C@@H](CO)Cc4cccc(C#N)c4)c3)o2)cc1` [Example 44, 2-chloro-N-[(2R)-1-(3-cyanophenyl)-3-hydroxypropan-2-yl]-5-[5-({[(1R)-1-(4-methylphenyl)ethyl]amino}methyl)-2-furyl]benzamide], the IC50 came to 1.6 µM.
Next, `Cc1ccc([C@@H](C)NCc2ccc(-c3ccc(Cl)c(C(=O)N[C@@H](CNC4CCNCC4F)Cc4ccc(C#N)cc4)c3)o2)cc1` (some centres unmarked) [Example 73]: 0.132 µM; `Cc1ccc([C@@H](C)NCc2ccc(-c3ccc(Cl)c(C(=O)N[C@@H](CN[C@H]4CCCN(C)C4)Cc4ccc(C#N)cc4)c3)o2)cc1` [Example 65]: 0.121 µM; `CNC(=O)C[C@@H](Cc1ccc(C#N)cc1)NC(=O)c1ccc(C#N)c(-c2ccc(CN[C@H](C)c3ccc(C)cc3)o2)c1` [Example 91]: 13.4 µM.
As for `COc1cc(C)c(C(=O)N[C@@H](CO)Cc2ccc(C#N)cc2)cc1-c1ccc(CN[C@H](C)c2ccc(C)cc2)o1` [Example 80, N-[(2R)-1-(4-cyanophenyl)-3-hydroxypropan-2-yl]-4-methoxy-2-methyl-5-[5-({[(1R)-1-(4-methylphenyl)ethyl]amino}methyl)-2-furyl]benzamide], the IC50 was 0.407 µM.
With `CC(=O)NC[C@@H](Cc1ccc(C#N)cc1)NC(=O)c1cc(-c2ccc(CN[C@H](C)c3ccc(C)cc3)o2)ccc1Cl` [Example 43, N-[(2R)-1-acetamido-3-(4-cyanophenyl)propan-2-yl]-2-chloro-5-[5-({[(1R)-1-(4-methylphenyl)ethyl]amino}methyl)-2-furyl]benzamide], the IC50 was 1.71 µM.
As for `CC(C)(NCc1ccc(-c2ccc(Cl)c(C(=O)NC(Cc3ccc(C#N)cc3)C(N)=O)c2)o1)c1ccc(Cl)cc1` (centres unmarked) [Example 95], the IC50 amounted to 2.82 µM.
Turning to `Cc1ccc([C@@H](C)NCc2ccc(-c3ccc(Cl)c(C(=O)N[C@@H](CC(=O)N4CCCC4)Cc4ccc(C#N)cc4)c3)o2)cc1` [Example 9, 2-chloro-N-[(2R)-1-(4-cyanophenyl)-4-oxo-4-(pyrrolidin-1-yl)butan-2-yl]-5-[5-({[(1R)-1-(4-methylphenyl)ethyl]amino}methyl)-2-furyl]benzamide], the IC50 was found to be 0.749 µM.
In the case of `CNC(=O)C[C@@H](Cc1ccc(C#N)cc1)NC(=O)c1cc(-c2ccc(CN[C@H](C)c3ccc(Cl)cc3)o2)ccc1Cl` [Example 89, 2-chloro-5-[5-({[(1R)-1-(4-chlorophenyl)ethyl]amino}methyl)-2-furyl]-N-[(2R)-1-(4-cyanophenyl)-4-(methylamino)-4-oxobutan-2-yl]benzamide] it was 2.06 µM; in that of `CNC(=O)C[C@@H](Cc1ccc(C#N)cc1)NC(=O)c1cc(-c2ccc(CNC(C)(C)c3ccc(C)cc3)o2)ccc1Cl` [Example 94], 2.98 µM.
As to `Cc1ccc([C@@H](C)NCc2ccc(-c3ccc(Cl)c(C(=O)N[C@@H](CO)Cc4ccc(C#N)c(N)c4)c3)o2)cc1` [Example 40, N-[(2R)-1-(3-amino-4-cyanophenyl)-3-hydroxypropan-2-yl]-2-chloro-5-[5-({[(1R)-1-(4-methylphenyl)ethyl]amino}methyl)-2-furyl]benzamide], the IC50 is 0.781 µM.
For the compound `Cc1ccc([C@@H](C)NCc2ccc(-c3ccc(Cl)c(C(=O)N[C@H](Cc4ccc(C#N)cc4)CN4CCN(C)CC4)c3)o2)cc1` [Example 21, 2-chloro-N-[(2R)-1-(4-cyanophenyl)-3-(4-methylpiperazin-1-yl)propan-2-yl]-5-[5-({[(1R)-1-(4-methylphenyl)ethyl]amino}methyl)-2-furyl]benzamide], the concentration for half-maximal inhibition (IC50) is 0.58 µM.
